Laboratory results reported in publication PMC13107341, “Quinoline/thiazole compounds as selective acetylcholinesterase inhibitors: synthesis and biological assessment” (RSC Medicinal Chemistry, 2026).

Columns and labels:
[1] = molecular target: AChE (Homo sapiens, UniProt P22303); assay: Anticholinesterase enzyme activity, modified Ellman method (AChE); format: biochemical
Procedure: Anticholinesterase enzyme activity studies were conducted to evaluate the inhibitory potential of the synthesized compounds (Table 2).
(§1) The anticholinesterase enzyme activities of the compounds were investigated using the modified Ellman method. The details of this method have been presented in detail in our previous studies.[25–27]

[2] = molecular target: BChE (Homo sapiens, UniProt P06276); assay: Anticholinesterase enzyme activity, modified Ellman method (BChE); format: biochemical
Procedure: Anticholinesterase enzyme activity studies were conducted to evaluate the inhibitory potential of the synthesized compounds (Table 2). Upon analysis of the results, compounds 3h and 3i stood out due to their notable IC50 values.
as §1

[3] = MTT cytotoxicity assay; conditions: mouse
Procedure: Both the activity of a compound and its lack of cytotoxicity are criteria that determine whether it can be a potential drug candidate. To this end, the cytotoxic potential of the compounds was investigated on healthy fibroblast cells.
To spectroscopically determine the effects of the synthesized compounds on cell viability, MTT analysis was performed. This method is based on the fact that metabolically active living cells reduce the colorless MTT (3-(4,5-dimethylthiazol-2-yl)-2,5-diphenyltetrazolium) salt, converting it into purple formazan crystals. In the analysis, healthy NIH3T3 cell lines were seeded into 96-well plates at a cell density of […] and incubated with the compounds for 24 hours.[28–33]

Chain of BChE (P06276 29-602, species assumed): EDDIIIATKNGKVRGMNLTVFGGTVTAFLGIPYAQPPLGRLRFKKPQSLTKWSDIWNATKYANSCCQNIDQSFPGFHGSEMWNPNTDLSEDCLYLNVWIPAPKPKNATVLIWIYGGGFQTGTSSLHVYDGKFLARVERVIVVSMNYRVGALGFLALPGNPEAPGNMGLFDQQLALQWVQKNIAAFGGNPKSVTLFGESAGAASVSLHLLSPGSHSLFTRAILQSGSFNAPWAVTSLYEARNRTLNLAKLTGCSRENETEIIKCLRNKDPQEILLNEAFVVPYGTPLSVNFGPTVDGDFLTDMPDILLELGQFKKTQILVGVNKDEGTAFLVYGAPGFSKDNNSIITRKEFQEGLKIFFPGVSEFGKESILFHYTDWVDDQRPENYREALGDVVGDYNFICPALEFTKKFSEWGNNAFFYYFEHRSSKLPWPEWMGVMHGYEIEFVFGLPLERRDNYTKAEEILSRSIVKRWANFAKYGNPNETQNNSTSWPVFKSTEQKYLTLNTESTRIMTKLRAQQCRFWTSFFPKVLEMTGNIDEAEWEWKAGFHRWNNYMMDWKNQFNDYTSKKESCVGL
Chain of AChE (P22303 32-614): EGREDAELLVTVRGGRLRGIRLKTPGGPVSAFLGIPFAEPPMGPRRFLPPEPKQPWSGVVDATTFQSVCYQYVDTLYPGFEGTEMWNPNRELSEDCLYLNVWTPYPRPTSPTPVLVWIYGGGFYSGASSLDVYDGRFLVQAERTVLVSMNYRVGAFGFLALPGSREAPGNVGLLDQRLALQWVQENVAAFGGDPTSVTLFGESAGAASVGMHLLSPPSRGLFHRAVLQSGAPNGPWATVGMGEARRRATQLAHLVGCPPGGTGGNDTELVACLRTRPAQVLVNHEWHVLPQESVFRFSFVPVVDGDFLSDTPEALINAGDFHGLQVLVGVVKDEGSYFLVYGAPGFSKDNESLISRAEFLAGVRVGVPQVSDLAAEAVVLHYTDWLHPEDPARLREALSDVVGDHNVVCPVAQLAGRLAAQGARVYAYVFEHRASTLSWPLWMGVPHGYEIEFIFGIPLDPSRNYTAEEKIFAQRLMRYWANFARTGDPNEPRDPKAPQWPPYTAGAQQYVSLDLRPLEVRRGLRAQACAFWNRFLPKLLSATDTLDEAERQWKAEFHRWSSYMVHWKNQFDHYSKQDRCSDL

SMILES	IC50 [1] [µM]	IC50 [2] [µM]	IC50 at 24 h [3] [µM]
CCn1c(-c2ccccc2)csc1=NN=Cc1ccnc2ccccc12 [3a, 3-Ethyl-4-phenyl-2-((quinolin-4-ylmethylene)hydrazineylidene)-2,3-dihydrothiazole]	> 10	> 10	–
CCn1c(-c2ccc(C)cc2)csc1=NN=Cc1ccnc2ccccc12 [3b, 3-Ethyl-2-((quinolin-4-ylmethylene)hydrazineylidene)-4-(p-tolyl)-2,3-dihydrothiazole]	> 10	> 10	–
CCn1c(-c2ccc(OC)cc2)csc1=NN=Cc1ccnc2ccccc12 [3c, 3-Ethyl-4-(4-methoxyphenyl)-2-((quinolin-4-ylmethylene)hydrazineylidene)-2,3-dihydrothiazole]	3.68 ± 0.109	> 10	–
CCn1c(-c2ccc([N+](=O)[O-])cc2)csc1=NN=Cc1ccnc2ccccc12 [3d, 3-Ethyl-4-(4-nitrophenyl)-2-((quinolin-4-ylmethylene)hydrazineylidene)-2,3-dihydrothiazole]	> 10	> 10	–
CCn1c(-c2ccc(F)cc2)csc1=NN=Cc1ccnc2ccccc12 [3e, 3-Ethyl-4-(4-fluorophenyl)-2-((quinolin-4-ylmethylene)hydrazineylidene)-2,3-dihydrothiazole]	1.87 ± 0.678	> 10	–
CCn1c(-c2ccc(Cl)cc2)csc1=NN=Cc1ccnc2ccccc12 [3f, 4-(4-Chlorophenyl)-3-ethyl-2-((quinolin-4-ylmethylene)hydrazineylidene)-2,3-dihydrothiazole]	4.75 ± 0.098	> 10	–
CCn1c(-c2ccc(C#N)cc2)csc1=NN=Cc1ccnc2ccccc12 [3g, 4-(3-Ethyl-2-((quinolin-4-ylmethylene)hydrazineylidene)-2,3-dihydrothiazol-4-yl)benzonitrile]	9.96 ± 0.208	> 10	–
CCn1c(-c2ccc(Cl)c(Cl)c2)csc1=NN=Cc1ccnc2ccccc12 [3h, 4-(3,4-Dichlorophenyl)-3-ethyl-2-((quinolin-4-ylmethylene)hydrazineylidene)-2,3-dihydrothiazole]	0.107 ± 0.07	> 10	36.1 ± 0.968
CCn1c(-c2ccc(O)c(O)c2)csc1=NN=Cc1ccnc2ccccc12 [3i, 4-(3-Ethyl-2-((quinolin-4-ylmethylene)hydrazineylidene)-2,3-dihydrothiazol-4-yl)benzene-1,2-diol]	0.027 ± 0.002	> 10	19.8 ± 0.627
COc1cccc2c1C(=O)c1c(O)c3c(c(O)c1C2=O)C[C@@](O)(C(=O)CO)C[C@@H]3O[C@H]1C[C@H](N)[C@H](O)[C@H](C)O1 [Doxorubicin, reference compound]	–	–	> 1000
